{"source": "patent US20130347134A1", "about": "“TRANSGENIC VON WILLEBRAND FACTOR ANIMALS AND USES THEREOF” (priority 2012, published 2013)", "key": {"[1]": {"test_system": "human platelets", "assay": "Ex vivo platelet adhesion, parallel-plate flow chamber, human whole blood over surface-immobilized VWF or VWF-A1, 1600 s^-1", "assay_type": "cell-based", "details": "for translocation velocities of human platelets: on plasma VWF, mean±s.e.m, n=4", "protocol": "Ex vivo platelet adhesion studies. Experiments were performed in a parallel-plate flow chamber as previously described (Offermanns, S., et al., 2006). For studies involving plasma VWF, a polyclonal anti-VWF antibody (Dako) was absorbed overnight (4° C.) to a six well tissue culture plate. Subsequently, the plate was washed and non-specific interactions blocked by the addition of TBS containing 3% BSA, pH 7.4 (1 hour, 37° C.). Human or murine plasma obtained from heparinized whole blood was added and the plates placed at 37° C. for an additional 2 hours. Generation, purification, and surface-immobilization of recombinant VWF-A1 proteins was performed as previously described (Doggett, T. A. et al., 2002). Both human and murine VWF-A1 constructs consist of amino acid residues 1238 to 1471, with a single intra-disulfide bond formed between residues 1272 and 1458 and were generated in bacteria. Citrated whole blood (150 μl) collected via cardiac puncture from anesthetized homozygous VWF^1326R>H or WT mice or from venopuncture from human volunteers was perfused over the immobilized substrates at a wall shear rate of 1600 s^−1 for 4 minutes, followed by washing with Tyrode's buffer under the identical flow conditions. The number of platelets attached per unit area (0.07 mm^2) and translocation velocities were determined by off-line analysis (Image-Pro Plus, Media Cybernetics). For GPIb α inhibition studies, the function-blocking mAb 6D1 (20 μg/ml) or mAb SZ2 (20 μg/ml; Beckman Coulter, Brea, Calif.) was added to anticoagulated human blood for 30 minutes prior to use. Experiments were performed in triplicate on two separate days. An ELISA was used to ensure equivalent coating concentration of plasma and recombinant proteins (Denis, C. et al., 1998)."}, "[2]": {"test_system": "human platelets", "assay": "Tail bleeding assay, human platelet-induced hemostasis in homozygous VWF^1326R>H mice", "assay_type": "in vivo, mouse", "details": "for human platelet-induced hemostatic clot formation: drug given to homozygous VWF^1326R>H mice receiving human platelets", "protocol": "(§1) Tail bleeding assay. […] For studies involving PLAVIX, animals received a 50 mg/kg oral dose of the drug the day before and 2 hours prior to the administration of human platelets.\nThis assay provides an indirect measure of the ability of platelets and VWF to support hemostasis by interacting with the injured vessel wall. It also indirectly determines the function of multiple receptors and ligands on platelets that are required to form a hemostatic plug. […] It is performed by immersing the severed tip (10 mm) of the animal's tail in isotonic saline at 37° C. and monitoring the length of time required for bleeding to cease. Homozygous mutant mice will be infused with an equal volume of either saline or purified human platelets. Platelet specific antibodies or drugs will be administered as described above and their ability to prolong bleeding time evaluated."}, "[3]": {"biological_target": "murine αIIb β3 (Mus musculus, UniProt O54890+Q9QUM0)", "sequence (Q9QUM0 32-1033)": "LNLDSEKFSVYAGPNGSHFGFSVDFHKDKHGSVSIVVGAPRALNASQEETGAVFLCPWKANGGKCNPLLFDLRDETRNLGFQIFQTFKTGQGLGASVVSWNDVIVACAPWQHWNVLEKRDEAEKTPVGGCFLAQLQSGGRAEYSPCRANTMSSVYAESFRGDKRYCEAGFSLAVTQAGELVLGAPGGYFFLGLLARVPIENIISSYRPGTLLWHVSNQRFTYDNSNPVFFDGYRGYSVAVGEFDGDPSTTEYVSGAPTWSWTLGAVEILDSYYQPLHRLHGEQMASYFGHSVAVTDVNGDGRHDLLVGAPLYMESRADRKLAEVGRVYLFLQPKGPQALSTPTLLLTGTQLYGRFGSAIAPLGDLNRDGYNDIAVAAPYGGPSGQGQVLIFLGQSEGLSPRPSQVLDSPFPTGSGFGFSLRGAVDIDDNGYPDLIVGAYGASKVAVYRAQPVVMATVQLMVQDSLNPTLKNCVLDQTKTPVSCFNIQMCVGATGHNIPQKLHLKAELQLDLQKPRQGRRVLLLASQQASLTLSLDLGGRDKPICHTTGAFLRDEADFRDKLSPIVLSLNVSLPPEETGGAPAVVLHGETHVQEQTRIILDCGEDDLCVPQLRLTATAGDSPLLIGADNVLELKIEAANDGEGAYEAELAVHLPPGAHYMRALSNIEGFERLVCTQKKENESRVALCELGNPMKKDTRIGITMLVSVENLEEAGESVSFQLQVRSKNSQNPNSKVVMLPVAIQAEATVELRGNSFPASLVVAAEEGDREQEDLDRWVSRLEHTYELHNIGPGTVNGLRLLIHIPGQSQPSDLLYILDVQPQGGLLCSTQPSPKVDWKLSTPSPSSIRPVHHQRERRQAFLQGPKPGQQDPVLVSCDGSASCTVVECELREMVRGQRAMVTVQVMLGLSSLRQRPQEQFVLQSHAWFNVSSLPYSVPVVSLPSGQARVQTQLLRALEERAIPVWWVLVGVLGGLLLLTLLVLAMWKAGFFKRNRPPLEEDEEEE", "sequence (O54890 26-787)": "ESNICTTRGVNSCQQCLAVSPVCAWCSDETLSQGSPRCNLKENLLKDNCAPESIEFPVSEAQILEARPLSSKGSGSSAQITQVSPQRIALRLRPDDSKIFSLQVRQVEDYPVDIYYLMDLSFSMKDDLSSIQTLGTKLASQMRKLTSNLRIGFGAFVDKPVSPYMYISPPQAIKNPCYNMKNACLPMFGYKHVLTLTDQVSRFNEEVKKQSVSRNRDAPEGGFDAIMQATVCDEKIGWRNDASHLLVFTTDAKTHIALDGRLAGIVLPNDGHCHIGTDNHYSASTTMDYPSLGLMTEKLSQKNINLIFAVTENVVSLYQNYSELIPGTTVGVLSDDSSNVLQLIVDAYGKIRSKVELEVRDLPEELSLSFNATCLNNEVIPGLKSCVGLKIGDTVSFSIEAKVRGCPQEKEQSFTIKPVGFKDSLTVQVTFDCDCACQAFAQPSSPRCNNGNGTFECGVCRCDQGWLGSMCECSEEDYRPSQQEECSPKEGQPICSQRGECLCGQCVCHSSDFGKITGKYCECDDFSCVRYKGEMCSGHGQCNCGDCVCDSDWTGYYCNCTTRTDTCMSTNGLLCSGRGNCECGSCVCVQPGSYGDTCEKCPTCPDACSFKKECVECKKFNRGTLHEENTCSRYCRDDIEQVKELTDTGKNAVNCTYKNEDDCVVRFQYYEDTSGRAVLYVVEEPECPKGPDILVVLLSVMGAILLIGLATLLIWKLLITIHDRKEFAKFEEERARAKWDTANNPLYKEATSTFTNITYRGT", "details": "cited from earlier work"}, "[4]": {"biological_target": "T1, αIIb β3 (Homo sapiens, UniProt P05106+P08514)", "T1 construct": "endogenous in cells; host or cells: platelets of treated patients", "details": "intravenous bolus 0.25 mg/kg, then 0.125 μg/kg/min; cited from earlier work"}, "[5]": {"test_system": "murine platelet rich plasma", "assay": "Ristocetin-induced platelet aggregation assay (RIPA), murine platelet rich plasma", "assay_type": "cell-based, mouse", "protocol": "In Ristocetin-induced platelet aggregation assays (RIPA), platelet GPIb a binding to wild type human VWF or mouse VWF was analyzed in the absence or presence of ristocetin as described previously (Inbal, et al., 1993). In this method, platelet rich plasma (PRP) is placed in a clear cuvette containing a stir bar and inserted into the aggregometer. Platelet aggregation is induced by the addition of ristocetin. […] In fact, only at concentrations of 2.5 mg/ml was there any evidence of murine platelet aggregation observed (about 30%, FIG. 10C)."}, "[6]": {"test_system": "human platelets", "assay": "Optical aggregometry, human platelets resuspended in platelet poor plasma of VWF^R1326H or VWF^HA1 mice", "assay_type": "cell-based", "protocol": "Although the R1326H mutation in murine VWF can support human platelet mediated hemostasis and thrombosis, there still exists a major difference between the human and mouse A1 domains. Specifically, only the human form can be activated to bind to GPIb alpha on human platelets. Ristocetin is an antibiotic that was taken off the market due to its ability to cause von Willebrand factor to bind the platelet receptor GPIb alpha, so when ristocetin is added to normal blood, it causes platelet clumping. […] Thus, murine VWF bearing the majority of the human A1 domain functions in manner more closely to that in humans, making it a better biological platform for studying human platelet function and the effects of antiplatelet agents for use in human beings."}, "[7]": {"biological_target": "ADP receptor on murine platelets (Mus musculus, UniProt Q9CPV9)", "sequence (Q9CPV9 whole entry)": "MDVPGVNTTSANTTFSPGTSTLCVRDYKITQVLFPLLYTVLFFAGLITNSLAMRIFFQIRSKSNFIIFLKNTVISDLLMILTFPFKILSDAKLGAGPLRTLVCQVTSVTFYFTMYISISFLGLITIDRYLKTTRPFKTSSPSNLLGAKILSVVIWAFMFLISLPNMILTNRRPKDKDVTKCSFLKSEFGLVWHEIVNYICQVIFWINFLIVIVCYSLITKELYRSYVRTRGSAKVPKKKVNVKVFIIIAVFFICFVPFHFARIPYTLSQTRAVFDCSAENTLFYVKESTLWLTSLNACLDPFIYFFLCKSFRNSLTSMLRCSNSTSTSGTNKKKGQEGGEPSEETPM", "details": "FIG. 46A", "protocol": "as §1"}, "[8]": {"test_system": "thrombus", "details": "maximal effective dose 50 mg/kg the day before and 2 hours prior; cited from earlier work"}, "[9]": {"test_system": "human platelets", "assay": "Parallel plate flow system, human platelets over immobilized plasma VWF of VWF HA1 mice", "assay_type": "cell-based"}, "[10]": {"test_system": "mouse platelets", "assay": "Parallel plate flow system, WT mouse blood over immobilized plasma VWF of VWF HA1 mice", "assay_type": "cell-based", "source_text": "WT mouse blood was then infused over the immobilized substrate."}}, "note": "“Also recorded” adds a separate entry of the source.", "data": [{"molecule": "native human plasma VWF: human plasma VWF", "values": [{"measurement": "translocation velocities of human platelets", "setting": "[1]", "value": "3.2±0.1", "unit": "μm/sec"}]}, {"molecule": "abciximab", "values": [{"measurement": "human platelet-induced hemostatic clot formation", "setting": "[2]", "value": "completely disrupted"}, {"measurement": "human platelet-induced hemostatic clot formation", "setting": "[2]; listed as ReoPro", "value": "prevented the formation of a hemostatic plug"}, {"measurement": "mean bleeding time", "setting": "[2]; given 5 minutes after infusion of human platelets, bolus 0.25 mg/kg then 0.125 μg/kg/min", "value": 579, "unit": "s"}, {"measurement": "binding or disruption of function of murine αIIb β3", "setting": "[3]", "value": "does not bind or disrupt the function of murine αIIb β3"}, {"measurement": "duration of disruption of platelet function", "setting": "[4]", "value": "24 to 36", "unit": "h"}, {"measurement": "αIIb β3 occupancy", "setting": "[4]", "value": "> 80", "unit": "%"}]}, {"molecule": "thrombin", "values": [{"measurement": "platelet aggregation", "setting": "[5]; incubation of murine PRP with thrombin", "value": "> 90", "unit": "%"}]}, {"molecule": "ristocetin", "values": [{"measurement": "human platelet aggregation", "setting": "[6]; plasma from VWF^HA1 mice", "value": "cause human platelet aggregation comparable to its human counterpart"}, {"measurement": "human platelet aggregation", "setting": "[6]; plasma from VWF^R1326H animals", "value": "such was not the case"}, {"measurement": "murine platelet aggregation", "setting": "[5]; about 1.0 mg/ml", "value": "no such effect; also recorded: had no effect"}]}, {"molecule": "VWF^1326R>H: full-length murine plasma VWF containing the 1326R>H mutation", "values": [{"measurement": "translocation velocities of human platelets", "setting": "[1]", "value": "3.5±0.1", "unit": "μm/sec"}, {"measurement": "human platelet accumulation on the surface-immobilized protein", "setting": "[1]; shear rate 1600 s^−1", "value": "bound human platelets at levels comparable with its human counterpart"}]}, {"molecule": "COC(=O)[C@H](c1ccccc1Cl)N1CCc2sccc2C1", "note": "[clopidogrel]", "values": [{"measurement": "function of the ADP receptor on murine platelets", "setting": "[7]", "value": "can also block the function of the ADP receptor on murine platelets"}, {"measurement": "thrombus size and formation in mice", "setting": "[8]", "value": "reduce thrombus size and delay its formation"}]}, {"molecule": "murine plasma VWF: plasma VWF of wild type mice", "values": [{"measurement": "human platelet deposition as compared with same-species controls", "setting": "[1]; human whole blood, shear rate 1600 s^−1", "value": 10, "unit": "%"}]}, {"molecule": "plasma VWF containing the human A1 domain: mouse VWF containing the majority of the human A1 domain (amino acids 1240P to 1481G)", "values": [{"measurement": "human platelet interactions with the immobilized protein", "setting": "[9]", "value": "could interact at levels observed for human plasma VWF"}, {"measurement": "mouse platelet interactions with the immobilized protein", "setting": "[10]", "value": "could not support any significant interactions"}]}]}
